Results published in patent US20190117624A1, “THERAPEUTIC AGENT FOR INFLAMMATORY BOWEL DISEASES” (DAIICHI SANKYO COMPANY, LIMITED, priority 2016, published 2019).

Tested on: dextran sodium sulfate-induced ulcerative colitis in rats
Assay: Drug efficacy on dextran sodium sulfate-induced ulcerative colitis in rats (erosion area of the large intestinal mucosa)
Type: in vivo, rat
Conditions: for erosion area / inhibition rate (erosion area): 14 days; for erosion area: DSS colitis rats, mean±standard error, control 330.3±15.4; for inhibition rate (erosion area): vs control group
Procedure: The test of drug efficacy of a TAFIa inhibitor on dextran sodium sulfate-induced ulcerative colitis in rats will be described below. This test was conducted by commissioning to NISSEI BILIS Co., Ltd.
A TAFIa inhibitor, (2S)-5-amino-2-{[1-(trans-4-methylcyclohexyl)-1H-imidazol-4-yl]methyl}valeric acid p-toluenesulfonate anhydride (hereinafter referred to as “compound A”) was dissolved in a 0.5% aqueous sodium carboxymethylcellulose solution (hereinafter referred to as “CMC-Na”) to prepare a dosing solution for oral administration of 0.6, 2, 6 and 20 mg/mL. The dosage was determined by conversion into a free form with a conversion factor of 0.6301. The chemical structure of compound A is as follows: […]
7-Week old male LEW/SsN Slc rats (Japan SLC, Inc.) were allowed to drink 3% dextran sodium sulfate (hereinafter referred to as “DSS”) freely to create ulcerative colitis models. Individuals meeting selection criteria for model animals shown in 1-3 below were selected followed by switching to free drinking of 1% aqueous DSS solution to maintain the ulcerative colitis models.
Thereafter, animals that met the selection criteria were selected.
The tests were conducted in two separate groups (the first half: 5 animals/group; the second half: 5 animals/group). The untreated individuals and the individuals meeting the above selection criteria were selected as adopted animals, and grouped into groups of 5 animals/group with the body weight as a main parameter and the hemoglobin concentration as a secondary parameter, according to stratified randomized assignment so as not to cause a difference in the average value among the groups (the total of two tests: 10 animals/group).
Administration route: Oral administration
Administration volume: 5 mL/kg
[…] Administration was conducted by masking the test groups (that is, individual identification numbers were recorded in the animal cards, and administration was conducted in a blinded manner). Note that the administration on the selection day (the first day of administration) was conducted only once in the afternoon.
Each of animals was fasted from the end of the final administration. On the day of dissection, approximately 3 mL of blood was collected from the abdominal aorta under anesthesia with pentobarbital sodium (30 mg/kg, i.p.) by using a polypropylene disposable syringe and an injection needle. Immediately after blood collection, the large intestine (the colon and the rectum) was isolated and immersed in physiological saline kept warm at approximately 37° C., and the length of the large intestine was measured in a relaxed state. Thereafter, a 10% neutral buffered formalin solution was infused into the large intestine, and the large intestine was immersed in physiological saline with the lumen expanded and temporarily fixed for 1 hour or more. After temporary fixation, the large intestine was dissected along the mesentery attachment site, immersed in a stretched state in a 10% neutral buffered formalin solution, and fixed for 1 week or more. The fixed large intestine specimen was washed with running water for approximately 5 minutes, further with distilled water three times, and then immersed in a 3% aqueous acetic acid solution for approximately 5 minutes as a pretreatment.
The large intestine specimen stained with a 1% Alcian blue solution was photographed. The photograph was captured on an image analysis device (general-purpose image processor WinROOF, Version 5.7, MITANI CORPORATION), and the area of deep blue part was measured. This measurement value was used as the erosion area.
The erosion area was expressed as mean±standard error. A significant difference test between the control group and each group was conducted by a homoscedasticity test (F-test) followed by Student's t test in the case of homoscedasticity and by Aspin-Welch's t test in the case of heteroscedasticity (significance level: 5%).

SMILES	erosion area (300 mg/kg orally once a day)	inhibition rate (erosion area) (300 mg/kg orally once a day)	erosion area compared to the control group (significance) (300 mg/kg orally once a day, Student's t test P<0.05)	erosion area compared to the control group (significance) (3 mg/kg orally twice a day)	erosion area (3 mg/kg orally twice a day)	inhibition rate (erosion area) (3 mg/kg orally twice a day)	erosion area (10 mg/kg orally twice a day)	inhibition rate (erosion area) (10 mg/kg orally twice a day)	erosion area compared to the control group (significance) (10 mg/kg orally twice a day, Student's t test P<0.05)	erosion area (30 mg/kg orally once a day)	inhibition rate (erosion area) (30 mg/kg orally once a day)	erosion area compared to the control group (significance) (30 mg/kg orally once a day, Student's t test P<0.01)	erosion area (30 mg/kg orally twice a day)	inhibition rate (erosion area) (30 mg/kg orally twice a day)	erosion area compared to the control group (significance) (30 mg/kg orally twice a day, Student's t test P<0.01)	erosion area (100 mg/kg orally twice a day)	inhibition rate (erosion area) (100 mg/kg orally twice a day)	erosion area compared to the control group (significance) (100 mg/kg orally twice a day, Student's t test P<0.01)	reduction effect of the erosion area (overall conclusion) (rat ulcerative colitis model)
O=C(O)c1cc(/N=N/c2ccc(S(=O)(=O)Nc3ccccn3)cc2)ccc1O [SASP, Salazosulfapyridine, reference compound]	261.6±22.7 mm^2	20.8%	significant reduction in the erosion area	–	–	–	–	–	–	–	–	–	–	–	–	–	–	–	–
C[C@H]1CC[C@H](n2cnc(C[C@H](CCCN)C(=O)O)c2)CC1.Cc1ccc(S(=O)(=O)O)cc1 [compound A, (2S)-5-amino-2-{[1-(trans-4-methylcyclohexyl)-1H-imidazol-4-yl]methyl}valeric acid p-toluenesulfonate anhydride]	–	–	–	No significant difference	291.8±13.1 mm^2	11.7%	281.6±11.1 mm^2	14.7%	significant reduction in the erosion area	264.0±7.9 mm^2	20.1%	significant reduction in the erosion area	262.89±13.9 mm^2	20.4%	significant reduction in the erosion area	261.9±12.7 mm^2	20.7%	significant reduction in the erosion area	significant reduction effect of the erosion area
